Measurements from patent US20250171438A1 (Agios Pharmaceuticals, Inc., priority 2022, published 2025).

Biological target: T1, human PAH with the R408W mutation (Homo sapiens, UniProt P00439, R408W)
T1 construct: expressed in transfected cells
T1 sequence (P00439 1-452 R408W): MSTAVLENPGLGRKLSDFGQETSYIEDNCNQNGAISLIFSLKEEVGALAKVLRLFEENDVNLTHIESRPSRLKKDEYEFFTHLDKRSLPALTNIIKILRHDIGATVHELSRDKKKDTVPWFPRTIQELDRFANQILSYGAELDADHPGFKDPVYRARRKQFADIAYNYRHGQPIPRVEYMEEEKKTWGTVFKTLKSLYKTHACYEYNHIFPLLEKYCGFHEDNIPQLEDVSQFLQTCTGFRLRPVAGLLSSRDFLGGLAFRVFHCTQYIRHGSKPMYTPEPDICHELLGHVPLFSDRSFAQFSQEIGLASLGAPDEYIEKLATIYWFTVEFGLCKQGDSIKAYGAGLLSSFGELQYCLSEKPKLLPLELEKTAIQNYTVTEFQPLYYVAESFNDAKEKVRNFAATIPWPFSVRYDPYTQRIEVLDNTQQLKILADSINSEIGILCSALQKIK
Assay: Cell Based Phenylalanine Flux Assay
Settings: A375 cells expressing human R408W PAH; 24 hrs compound incubation; 13C-Tyrosine by LC-MS; average where tested multiple times; read-out: AC50

AC50 [nM]	Structure (SMILES)
< 500	N#Cc1ccn2ncc(C(=O)N3CCc4[nH]cnc4[C@H]3c3nc4ccccc4s3)c2c1 [Example 1085, (S)-3-(4-(benzo[d]thiazol-2-yl)-4,5,6,7-tetrahydro-1H-imidazo[4,5-c]pyridine-5-carbonyl)pyrazolo[1,5-a]pyridine-5-carbonitrile]
1000 to 5000	N#Cc1ccn2ncc(C(=O)N3CCc4[nH]cnc4[C@@H]3c3nc4ccccc4s3)c2c1 [Example 1086, (R)-3-(4-(benzo[d]thiazol-2-yl)-4,5,6,7-tetrahydro-1H-imidazo[4,5-c]pyridine-5-carbonyl)pyrazolo[1,5-a]pyridine-5-carbonitrile]
500 to 1000	Cc1ccc2c(C(=O)N3CCc4[nH]cnc4[C@H]3c3nc4ccccc4s3)cnn2c1 [Example 1087]
> 5000	Cc1ccc2c(C(=O)N3CCc4[nH]cnc4[C@@H]3c3nc4ccccc4s3)cnn2c1 [Example 1088, (R)-(4-(benzo[d]thiazol-2-yl)-6,7-dihydro-1H-imidazo[4,5-c]pyridin-5(4H)-yl)(6-methylpyrazolo[1,5-a]pyridin-3-yl)methanone]
500 to 1000	O=C(CCc1nnc(Br)s1)N1CCc2[nH]cnc2[C@H]1c1nc2ccccc2s1 [Example 1089]
> 5000	O=C(CCc1nnc(Br)s1)N1CCc2[nH]cnc2[C@@H]1c1nc2ccccc2s1 [Example 1090, (R)-1-(4-(benzo[d]thiazol-2-yl)-6,7-dihydro-1H-imidazo[4,5-c]pyridin-5(4H)-yl)-3-(5-bromo-1,3,4-thiadiazol-2-yl)propan-1-one]
> 5000	O=C(c1nc2c(F)cccc2s1)N1CCc2[nH]cnc2[C@@H]1c1nc2ccccc2s1 [Example 1091, (R)-(4-(benzo[d]thiazol-2-yl)-6,7-dihydro-1H-imidazo[4,5-c]pyridin-5(4H)-yl)(4-fluorobenzo[d]thiazol-2-yl)methanone]
500 to 1000	O=C(c1nc2c(F)cccc2s1)N1CCc2[nH]cnc2[C@H]1c1nc2ccccc2s1 [Example 1092]
500 to 1000	O=C(CCC1CC1)N1CCc2[nH]cnc2[C@H]1c1nc2ccc(F)cc2s1 [Example 1093, (S)-3-cyclopropyl-1-(4-(6-fluorobenzo[d]thiazol-2-yl)-6,7-dihydro-1H-imidazo[4,5-c]pyridin-5(4H)-yl)propan-1-one]
> 5000	O=C(CCC1CC1)N1CCc2[nH]cnc2[C@@H]1c1nc2ccc(F)cc2s1 [Example 1094, (R)-3-cyclopropyl-1-(4-(6-fluorobenzo[d]thiazol-2-yl)-6,7-dihydro-1H-imidazo[4,5-c]pyridin-5(4H)-yl)propan-1-one]
500 to 1000	O=C(c1nc2cc(F)ccc2s1)N1CCc2[nH]cnc2[C@H]1c1nc2ccccc2s1 [Example 1095]
> 5000	O=C(c1nc2cc(F)ccc2s1)N1CCc2[nH]cnc2[C@@H]1c1nc2ccccc2s1 [Example 1096, (R)-(4-(benzo[d]thiazol-2-yl)-6,7-dihydro-1H-imidazo[4,5-c]pyridin-5(4H)-yl)(5-fluorobenzo[d]thiazol-2-yl)methanone]
500 to 1000	O=C(c1cnco1)N1CCc2[nH]cnc2[C@H]1c1nc2ccccc2s1 [Example 1097]
> 5000	O=C(c1cnco1)N1CCc2[nH]cnc2[C@@H]1c1nc2ccccc2s1 [Example 1098, (R)-(4-(benzo[d]thiazol-2-yl)-6,7-dihydro-1H-imidazo[4,5-c]pyridin-5(4H)-yl)(oxazol-5-yl)methanone]
1000 to 5000	O=C(c1cnn2ccccc12)N1CCc2[nH]cnc2[C@H]1c1nc2ccc(F)cc2s1 [Example 1099, (S)-(4-(6-fluorobenzo[d]thiazol-2-yl)-6,7-dihydro-1H-imidazo[4,5-c]pyridin-5(4H)-yl)(pyrazolo[1,5-a]pyridin-3-yl)methanone]
> 5000	O=C(c1cnn2ccccc12)N1CCc2[nH]cnc2[C@@H]1c1nc2ccc(F)cc2s1 [Example 1100, (R)-(4-(6-fluorobenzo[d]thiazol-2-yl)-6,7-dihydro-1H-imidazo[4,5-c]pyridin-5(4H)-yl)(pyrazolo[1,5-a]pyridin-3-yl)methanone]
500 to 1000	O=C(c1nccs1)N1CCc2[nH]cnc2[C@H]1c1nc2cccc(F)c2s1 [Example 1101, (S)-(4-(7-fluorobenzo[d]thiazol-2-yl)-6,7-dihydro-1H-imidazo[4,5-c]pyridin-5(4H)-yl)(thiazol-2-yl)methanone]

AC50 [nM]	Structure (SMILES)
1000 to 5000	O=C(c1nccs1)N1CCc2[nH]cnc2[C@@H]1c1nc2cccc(F)c2s1 [Example 1102, (R)-(4-(7-fluorobenzo[d]thiazol-2-yl)-6,7-dihydro-1H-imidazo[4,5-c]pyridin-5(4H)-yl)(thiazol-2-yl)methanone]
500 to 1000	O=C(c1cnn2ccc(F)cc12)N1CCc2[nH]cnc2[C@H]1c1nc2ccccc2s1 [Example 1103]
1000 to 5000	O=C(c1cnn2ccc(F)cc12)N1CCc2[nH]cnc2[C@@H]1c1nc2ccccc2s1 [Example 1104, (R)-(4-(benzo[d]thiazol-2-yl)-6,7-dihydro-1H-imidazo[4,5-c]pyridin-5(4H)-yl)(5-fluoropyrazolo[1,5-a]pyridin-3-yl)methanone]
500 to 1000	O=C(c1ncn2ccccc12)N1CCc2[nH]cnc2[C@H]1c1nc2cc(F)ccc2s1 [Example 1105, (S)-(4-(5-fluorobenzo[d]thiazol-2-yl)-6,7-dihydro-1H-imidazo[4,5-c]pyridin-5(4H)-yl)(imidazo[1,5-a]pyridin-1-yl)methanone]
1000 to 5000	O=C(c1ncn2ccccc12)N1CCc2[nH]cnc2[C@@H]1c1nc2cc(F)ccc2s1 [Example 1106, (R)-(4-(5-fluorobenzo[d]thiazol-2-yl)-6,7-dihydro-1H-imidazo[4,5-c]pyridin-5(4H)-yl)(imidazo[1,5-a]pyridin-1-yl)methanone]
< 500	O=C(c1cnn2ccc(Cl)cc12)N1CCc2[nH]cnc2[C@H]1c1nc2ccccc2s1 [Example 1107]
1000 to 5000	O=C(c1cnn2ccc(Cl)cc12)N1CCc2[nH]cnc2[C@@H]1c1nc2ccccc2s1 [Example 1108, (R)-(4-(benzo[d]thiazol-2-yl)-6,7-dihydro-1H-imidazo[4,5-c]pyridin-5(4H)-yl)(5-chloropyrazolo[1,5-a]pyridin-3-yl)methanone]
500 to 1000	O=C(c1cnn2ccccc12)N1CCc2[nH]cnc2[C@H]1c1nc2cccc(F)c2s1 [Example 1109, (S)-(4-(7-fluorobenzo[d]thiazol-2-yl)-6,7-dihydro-1H-imidazo[4,5-c]pyridin-5(4H)-yl)(pyrazolo[1,5-a]pyridin-3-yl)methanone]
500 to 1000	O=C(c1cnn2ccccc12)N1CCc2[nH]cnc2[C@@H]1c1nc2cccc(F)c2s1 [Example 1110, (R)-(4-(7-fluorobenzo[d]thiazol-2-yl)-6,7-dihydro-1H-imidazo[4,5-c]pyridin-5(4H)-yl)(pyrazolo[1,5-a]pyridin-3-yl)methanone]
500 to 1000	O=C(c1cnn2ccccc12)N1CCc2nc[nH]c2[C@H]1c1nc2c(F)cccc2s1 [Example 1111, (S)-(4-(4-fluorobenzo[d]thiazol-2-yl)-6,7-dihydro-3H-imidazo[4,5-c]pyridin-5(4H)-yl)(pyrazolo[1,5-a]pyridin-3-yl)methanone]
1000 to 5000	O=C(c1cnn2ccccc12)N1CCc2nc[nH]c2[C@@H]1c1nc2c(F)cccc2s1 [Example 1112, (R)-(4-(4-fluorobenzo[d]thiazol-2-yl)-6,7-dihydro-3H-imidazo[4,5-c]pyridin-5(4H)-yl)(pyrazolo[1,5-a]pyridin-3-yl)methanone]
1000 to 5000	O=C(CCC1CC1)N1CCc2nc[nH]c2[C@H]1c1nc2c(F)cccc2s1 [Example 1113, (S)-3-cyclopropyl-1-(4-(4-fluorobenzo[d]thiazol-2-yl)-6,7-dihydro-3H-imidazo[4,5-c]pyridin-5(4H)-yl)propan-1-one]
> 5000	O=C(CCC1CC1)N1CCc2nc[nH]c2[C@@H]1c1nc2c(F)cccc2s1 [Example 1114, (R)-3-cyclopropyl-1-(4-(4-fluorobenzo[d]thiazol-2-yl)-6,7-dihydro-3H-imidazo[4,5-c]pyridin-5(4H)-yl)propan-1-one]
500 to 1000	CCc1nnc(CCC(=O)N2CCc3[nH]cnc3[C@H]2c2nc3ccccc3s2)s1 [Example 1115]
> 5000	CCc1nnc(CCC(=O)N2CCc3[nH]cnc3[C@@H]2c2nc3ccccc3s2)s1 [Example 1116, (R)-1-(4-(benzo[d]thiazol-2-yl)-6,7-dihydro-1H-imidazo[4,5-c]pyridin-5(4H)-yl)-3-(5-ethyl-1,3,4-thiadiazol-2-yl)propan-1-one]
1000 to 5000	O=C(c1nccs1)N1CCc2nc[nH]c2[C@@H]1c1nc2c(F)cccc2s1 [Example 1119, (R)-(4-(4-fluorobenzo[d]thiazol-2-yl)-6,7-dihydro-3H-imidazo[4,5-c]pyridin-5(4H)-yl)(thiazol-2-yl)methanone]

Structure (SMILES)	AC50 [nM]
O=C(CC1CC1)N1CCc2[nH]cnc2[C@H]1c1nc2ccc(F)cc2s1 [Example 1117, (S)-2-cyclopropyl-1-(4-(6-fluorobenzo[d]thiazol-2-yl)-6,7-dihydro-1H-imidazo[4,5-c]pyridin-5(4H)-yl)ethanone]	< 500
O=C(CC1CC1)N1CCc2[nH]cnc2[C@@H]1c1nc2ccc(F)cc2s1 [Example 1118, (R)-2-cyclopropyl-1-(4-(6-fluorobenzo[d]thiazol-2-yl)-6,7-dihydro-1H-imidazo[4,5-c]pyridin-5(4H)-yl)ethanone]	> 5000
